The target in one data set is E. coli WbbL (Escherichia coli, UniProt P36667). Description: In vitro inhibition assay of E. coli WbbL with monosaccharides and compound 2. In kind it is biochemical. Particulars: 250 µM dTDP-β-L-Rha, 1 mM GlcNAc-PP-undecaprenol. The procedure: Primers were purchased from Invitrogen and sequencing was completed by GENEWIZ (Azenta) or EtonBio. Chemicals were purchased from Sigma Aldrich, CarboSynth, Fisher Scientific, and Cayman without further purification. 1H, 13C, and 31P NMR spectra were recorded on a Bruker Avance III 400, 500, or 600 MHz instrument. All spectra were calibrated using residual non-deuterated solvent as an internal reference and processed using MestReNova (authorized to NYU). Gel filtration purification and analyses was performing using at AKTA pure 15 L instrument (UNICORN™ software, GE Healthcare). HRMS analyses were acquired on an Agilent 6224 Accurate-Mass time-of-flight LC/MS (LC-TOF) spectrometer equipped with an electrospray ionization (ESI) source with an autosampler. GraphPad Prism software 9.0 was used for all plotting and data analysis unless otherwise noted. Statistical significance of grouped data was assessed using paired t-tests in Prism. For the IC50 calculation, data were fit in Prism using the equation log(inhibitor) versus response (three parameters): y = bottom + (top-bottom)/(1+10^(X-log IC50)) based on the assumption the Hill slope would be 1, as predicted by ITC results with n ~ 1 for donor ligands. Data was normalized to controls without enzyme and with no inhibitor added. Confidence intervals were calculated based on the standard error. 1M TEAB buffer was prepared by suspending triethylamine (1 mol, 139 mL) in water (700 mL) and passing carbon dioxide (from evaporated dry ice) through the mixture until the pH=7.5. The buffer was diluted to 1L and stored as a stock solution at 4 °C. Prior to use it was diluted to 50 mM in deionized H2O […]
E. coli WbbL, sequence (P36667 whole entry, looked up): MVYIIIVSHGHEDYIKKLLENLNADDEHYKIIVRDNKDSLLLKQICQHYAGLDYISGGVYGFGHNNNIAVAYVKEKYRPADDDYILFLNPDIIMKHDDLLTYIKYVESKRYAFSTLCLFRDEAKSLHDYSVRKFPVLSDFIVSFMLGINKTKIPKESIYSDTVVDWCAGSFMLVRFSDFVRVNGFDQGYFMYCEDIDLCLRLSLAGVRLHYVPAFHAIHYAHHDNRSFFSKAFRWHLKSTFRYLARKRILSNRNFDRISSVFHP
Methods for protein and cellular biochemistry/bioinformatics used in this study.
Bioinformatic approach to identify Thermus thermophilus RfbF as a putative glycolipid RT.
The Carbohydrate-Active Enzymes Database (CAZy.org) was used to identify thermophilic organisms with annotated glycosyltransferases (GTs).11-12 Genes annotated as wbbL have been experimentally shown to encode dTDP-rhamnosyltransferases that transfer L-Rha onto N-acetyl--a-D-glucosamine-1-diphospholipid acceptors.13-14 In Shigella flexneri, the protein encoded by rfbF was noted to carry out the same biochemical activity as WbbL based on genetic and LPS analyses.15-16 Both E. coli WbbL and S. flexneri RfbF belong to the GT2 family. A CAZy search for rfbF and wbbL was performed in the genomes of Gram-negative extreme thermophiles, which […]
(GenBank: AAS80876.1), which had not yet been biochemically characterized. Protein ANalysis […]
thermodynamic values were evaluated using ITCRun software (TA Instruments) and fit with a […]
Specific activities were determined by modification of the protocol outlined by Li et al. […]

Data set [1] concerns E. coli cells with or without wbbL. The experiment in a line: Growth inhibition / toxicity of 2 with E. coli (OD600). Conditions: ~2 mM / low millimolar concentrations of 2, E. coli +/- wbbL.
The target of a further data set is T. thermophilus RfbF (Thermus thermophilus, UniProt Q72KB9). Description: Isothermal titration calorimetry (ITC) binding measurements with RfbF. Conditions: ITC.
T. thermophilus RfbF, sequence (Q72KB9 entry or part of it): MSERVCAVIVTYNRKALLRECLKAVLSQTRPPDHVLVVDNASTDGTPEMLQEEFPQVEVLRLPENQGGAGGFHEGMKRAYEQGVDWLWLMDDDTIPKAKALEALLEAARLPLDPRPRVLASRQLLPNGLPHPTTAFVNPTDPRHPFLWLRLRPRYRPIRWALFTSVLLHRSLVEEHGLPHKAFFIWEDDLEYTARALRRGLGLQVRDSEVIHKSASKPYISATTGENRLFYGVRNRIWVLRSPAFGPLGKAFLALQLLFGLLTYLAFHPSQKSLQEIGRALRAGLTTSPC
In data set [2] the test system is WbbL-dependent O-Ag synthesis in E. coli expressing wbbL. In kind it is cell-based, Escherichia coli.
In the next data set the test system is crude Mtb WbbL. Particulars: cited from earlier work.
The mark [3] stands for this setting: 25 °C, ligand titrated into 110 µM RfbF.

Several values for one entry are separate records, joined by “and”; a condition that tells them apart may be missing. Equal entries are not always repeated. Where two headings read alike, the source gives them in different places.

Broadly, the inhibition is the percentage by which the read-out fell short of the control. What is called Kd is the constant that tells how readily two partners part at equilibrium. Take `C[C@@H]1NC[C@H](O)[C@H](O)[C@H]1O` [compound 2, 1,5-dideoxy-1,5-imino-L-rhamnitol]: the IC50 at E. coli WbbL (0.0101 mg/mL E. coli WbbL, 95% confidence interval, read-out: half maximal inhibitory concentration (IC50)) is ~3 mM and 3.16 mM. Also, the inhibition at 5000 µM against E. coli WbbL (5 mM inhibitor, 8 min) was about 53%. Also, the “toxicity to E. coli (growth, OD600)” value in data set [1] is “not toxic”. Further, the “binding to RfbF by ITC (in words)” value at T. thermophilus RfbF (ligand titrated into 110 µM RfbF) is given as “no measurable binding”. Besides, the Kd on T. thermophilus RfbF (KD (beyond measurable limit), 5-10 mM ligand titrated into 110 µM RfbF) was over 1000 µM. Moreover, the “reduction of O-Ag levels by densitometry” value in data set [2] (E. coli expressing wbbL grown with 2 versus untreated, silver stain / anti-O16 blot of purified LPS) was about 40%. For the same compound, the “reduction of LPS produced versus untreated cells” value in data set [2] (E. coli expressing wbbL grown with ~2 mM 2, equivalent number of cells, mass of extracted LPS) is over 50%.
As usually defined, the Km is the substrate concentration at which the rate is half of its maximum. As to `Cc1cn(C2CC(O)C(COP(=O)(O)OP(=O)(O)OC3OC(C)C(O)C(O)C3O)O2)c(=O)[nH]c1=O` [dTDP-β-L-Rha, reference compound], on T. thermophilus RfbF (setting [3]), the ΔG was -6.77 (.38) kcal/mol, the ΔH is recorded as -8.68 (0.59) kcal/mol and the ΔS is listed as -6.43 (0.68) cal/mol·K. The Kd on T. thermophilus RfbF (25 °C, ligand titrated into 110 µM RfbF, one-site model, spread = SD, triplicate, read-out: KD) is about 8 µM. At T. thermophilus RfbF (KD, 25 °C, ligand titrated into 110 µM RfbF, one-site model, spread = SD, triplicate), this compound yielded a Kd of 8.31 ± 3.66 µM. In the data set on crude Mtb WbbL, the Km was about 35 µM.
